Measurements taken from US20230064363A1, “MATURATION OF SPERMATOGONIAL CELLS IN VITRO BT GROWTH FACTORS AND HORMONES” (B.G. Negev Technologies & Applications Ltd., at Ben-Gurion …, priority 2020, published 2023).
Read-outs that look alike come from different tables or passages of the source.

Assays:
[1] = tested on: spermatogonial cells isolated from CP-treated immature mice; assay: In vitro culture in MCS of seminiferous tubule cells from CP-treated immature mice; marker-positive cells by immunofluorescence staining; type: cell-based; conditions: for ACROSIN (meiotic/postmeiotic marker), percentage of stained cells / BOULE (meiotic marker), percentage of stained cells / C-KIT (pre-meiotic marker), percentage of stained cells / CD9 (pre-meiotic marker), percentage of stained cells / CREM (meiotic marker), percentage of stained cells / GFR-a (pre-meiotic marker), percentage of stained cells / VASA (pre-meiotic marker), percentage of stained cells / a-6-INTG (pre-meiotic marker), percentage of stained cells: after 4-5 weeks culture in MCS, FSH 7.5 IU/ml, IL-1α 20 pg/ml or TNF-α 20 pg/ml from the beginning, testosterone 10^−7 M at the last week
[2] = tested on: isolated seminiferous tubule cells; assay: Isolated seminiferous tubule cells of 7-days-old mice cultured in methylcellulose culture system (MCS); marker-positive cells by immunofluorescence staining; type: cell-based
[3] = tested on: Sertoli cells; conditions: cells isolated from seminiferous tubules ten days post-treatment, compared to control
Protocol: Tubular Cell Isolation—The procedure was performed under sterile conditions. Testes from both control and CP-treated mice were removed and tunica albuginea was gently removed by scalpel knife. Seminiferous tubules (STs) were immersed with PBS and thereafter transported through a syringe 2-3 times to complete the mechanical digestion. Thereafter the STs were enzymatically digested as described by AbuMadigem et al. [International Journal of Molecular Sciences 19, 3804 (2018)].
Gene expression—RNA was extracted from isolated testicular cells, from control or CP-treated immature mice, by GenElute Mannalian Total RNA Miniprep Kit [Sigma, St. Louis, USA). cDNA synthesis was performed according to the qScript cDNA Synthesis Kit (Quantabio, Beverly, Mass., USA) and qPCR was performed using specific primers for each examined marker: ABP (forward: [sequence] (SEQ ID NO: 1); reverse: [sequence] (SEQ ID NO:2); product size, 237 bp), INHIBIN B (forward: [sequence] (SEQ ID NO:3); reverse: [sequence] (SEQ ID NO:4); product size, 209 bp), FSH-R (forward: [sequence] […] (SEQ ID NO: 6); product size, 206 bp), Transferrin (forward: [sequence] (SEQ ID NO:7); reverse: [sequence] (SEQ ID NO:8); product size: 231 bp), Housekeeping gene GAPDH (forward: [sequence] (SEQ ID NO:9); reverse: [sequence] (SEQ ID NO:10); product size, 450 bp). qPCR reaction was performed following the 2× qPCRBIO SyGreen Blue Mix Hi-ROX (PCR Biosystems Ltd, Aztec House, 397-405 Archway Road, London, UK) protocol and was performed using the LightCycler 96 real-time PCR machine (Roche, Roche Diagnostics Corporation, Roche CustomBiotech, Indianapolis, Ind., USA). Program: preincubation 10 minutes at 95° C., 40 cycles of 15 seconds at 95° C., 15 seconds at 60° C. and 10 seconds at 72° C. Melting cycle: 10 seconds at 95° C., 60 seconds at 65° C., and 1 second at 97° C. PCR products were identified by the melting curve. The “threshold cycle” (Ct) value for each transcript was identified. The relative quantity of gene expression was analyzed by the 2° method. Results were expressed as the fold of increase related to the GAPDH of the same examined sample and relatively compared to control treatment group.

[4] = tested on: testes of immature mice
[5] = tested on: isolated seminiferous tubule cells; assay: Isolated seminiferous tubule cells of 7-days-old mice cultured in MCS; premeiotic and meiotic/postmeiotic marker RNA by qPCR; type: cell-based; conditions: GM-CSF 0.1 or 1 ng/ml for 4 weeks; testosterone 10^−7 M added after 2 weeks in control medium for additional 2 weeks; after 4 weeks of culture; compared to control cultured cells
[6] = compared to cells cultured in control medium
[7] = factor from the beginning of the culture (IL-1α 10 pg/ml; IL-1β or IL-6 1, 10 or 100 pg/ml), after 4 weeks of culture, compared to control medium
[8] = 10-days post last CP-injection, compared to control, p<0.001
[9] = 10-days post the last CP-injection, compared to control, p<0.001
[10] = CP 100 mg/kg i.p. once a week for 3 weeks, day 10 post-treatment, compared to control, p<0.001
[11] = GM-CSF 0.1 or 1 ng/ml for 4 weeks, testosterone 10^−7 M added after 2 weeks in control medium for additional 2 weeks, after 4 weeks of culture, compared to control cultured cells
[12] = IL-1α 10 pg/ml added only after 2 weeks of the culture for additional 2 weeks, compared to control medium

Molecule: C[C@]12CC[C@H]3[C@@H](CCC4=CC(=O)CC[C@@]43C)[C@@H]1CC[C@@H]2O [testosterone, reference compound]
- ACROSIN (meiotic/postmeiotic marker), percentage of stained cells [1]: 55.53%
- BOULE (meiotic marker), percentage of stained cells [1]: 22.15%
- C-KIT (pre-meiotic marker), percentage of stained cells [1]: 11.13%
- CD9 (pre-meiotic marker), percentage of stained cells [1]: 42.63%
- CREM (meiotic marker), percentage of stained cells [1]: 38.42%
- GFR-a (pre-meiotic marker), percentage of stained cells [1]: 24.03%
- VASA (pre-meiotic marker), percentage of stained cells [1]: 23.76%
- a-6-INTG (pre-meiotic marker), percentage of stained cells [1]: 12.23%
- percentage of the meiotic/postmeiotic ACROSIN positive cells [1, 6]: significantly increased
- percentage of the other examined premeiotic and meiotic (or meiotic/postmeiotic) cells developed in MCS [1, 6]: without any significant effect
- percentage of the premeiotic CD9 positive cells [1, 6]: significantly increased

Molecule: TNFα
- ACROSIN (meiotic/postmeiotic marker), percentage of stained cells [1]: 36.4%
- BOULE (meiotic marker), percentage of stained cells [1]: 21.1%
- C-KIT (pre-meiotic marker), percentage of stained cells [1]: 29.05%
- CD9 (pre-meiotic marker), percentage of stained cells [1]: 33.52%
- CREM (meiotic marker), percentage of stained cells [1]: 36.1%
- GFR-a (pre-meiotic marker), percentage of stained cells [1]: 25.3%
- VASA (pre-meiotic marker), percentage of stained cells [1]: 31.67%
- a-6-INTG (pre-meiotic marker), percentage of stained cells [1]: 25.76%
- percentage of the other examined premeiotic and meiotic (or meiotic/postmeiotic) cells developed in MCS [1, 6]: without any significant effect
- percentage of the premeiotic CD9 positive cells [1, 6]: significantly increased

Molecule: IL-1β: interleukin 1 beta cytokine (PeproTech), 1, 10 or 100 pg/ml
- percentages of BOULE positive cells [2, 7]: significantly increased
- percentages of VASA positive cells [2, 7]: significantly increased
- percentages of acrosin positive cells [2, 7]: significantly increased

Molecule: IL-6: interleukin-6 cytokine (PeproTech), 1, 10 or 100 pg/ml
- percentages of BOULE positive cells [2, 7]: significantly increased
- percentages of VASA positive cells [2, 7]: significantly increased
- percentages of acrosin positive cells [2, 7]: significantly increased

Molecule: O=P1(N(CCCl)CCCl)NCCCO1 (centres unmarked) [CP, cyclophosphamide]
- expression levels of androgen binding protein (ABP) [3]: did not significantly affect
- expression levels of transferrin ([3]; p<0.01): significantly increased
- expression levels of FSH-receptor (FSH-R) ([3]; p<0.05): significantly increased
- expression levels of inhibin ([3]; p<0.05): significantly increased
- number of Sertoli cells (vimentin) [4, 8]: significantly reduced
- number of peritubular cells (αSMA) [4, 8]: significantly reduced
- number of cells stained positive to the meiotic/postmeiotic marker acrosin [4, 9]: significantly reduced
- number of meiotic cells stained positive to BOULE [4, 9]: significantly reduced
- number of meiotic cells stained positive to CREM [4, 9]: significantly reduced
- number of premeiotic cells stained positive to CD9 [4, 9]: significantly reduced
- number of premeiotic cells stained positive to VASA [4, 9]: significantly reduced
- number of premeiotic cells stained positive to c-KIT [4, 9]: significantly reduced
- number of premeiotic cells stained positive to α-6 INTEGRIN [4, 9]: significantly reduced
- testicular weight ([4]; CP 100 mg/kg i.p. once a week for 3 weeks, all time points during 5 weeks after the last injection, compared to control mice, p<0.001): significantly decreased
- seminiferous tubules histology ([4]; CP 100 mg/kg i.p. once a week for 3 weeks, day 10 post-treatment, compared to control): significantly impaired
- testicular cell count [4, 10]: decreased
- testicular weight [4, 10]: decreased
- seminiferous tubules histology ([4]; CP 100 mg/kg i.p. once a week for 3 weeks, during 3 weeks after the last injection): impaired
- time of most severe damage for the seminiferous tubules ([4]; CP 100 mg/kg i.p. once a week for 3 weeks, weeks post-treatment): 1-2 weeks

Molecule: GM-CSF
- BOULE expression levels (qPCR) [5]: significantly increased
- PLZF expression level (qPCR) [5]: significantly increased
- VASA expression level (qPCR) [5]: significantly increased
- acrosin expression levels (qPCR) [5]: did not significantly increase
- percentage of VASA positive cells [2, 11]: significantly increased
- percentage of acrosin positive cells [2, 11]: did not significantly increase
- percentages of BOULE positive cells [2, 11]: significantly increased

B1: IL-1α: interleukin 1 alpha cytokine (BioLegend 20 pg/ml; PeproTech 10 pg/ml) (protein, UniProt P01583 113-271, looked up)
Interleukin-1 alpha: SAPFSFLSNVKYNFMRIIKYEFILNDALNQSIIRANDQYLTAAALHNLDEAVKFDMGAYKSSKDDAKITVILRISKTQLYVTAQDEDQPVLLKEMPEIPKTITGSETNLLFFWETHGTKNYFTSVAHPNLFIATKQDYWVCLAGGPPSITDFQILENQA
- ACROSIN (meiotic/postmeiotic marker), percentage of stained cells [1]: 34.27%
- BOULE (meiotic marker), percentage of stained cells [1]: 27.16%
- C-KIT (pre-meiotic marker), percentage of stained cells [1]: 16.5%
- CD9 (pre-meiotic marker), percentage of stained cells [1]: 23.4%
- CREM (meiotic marker), percentage of stained cells [1]: 30.45 + %
- GFR-a (pre-meiotic marker), percentage of stained cells [1]: 22.77%
- VASA (pre-meiotic marker), percentage of stained cells [1]: 20.8%
- a-6-INTG (pre-meiotic marker), percentage of stained cells [1]: 17.5%
- percentage of premeiotic, meiotic and meiotic/postmeiotic examined cells developed in MCS [1, 6]: did not show any significant effect
- percentages of BOULE positive cells [2, 12]: increased the percentages of BOULE positive cells, but not significantly
- percentages of VASA positive cells [2, 12]: increased the percentages of VASA positive cells, but not significantly
- percentages of acrosin cells [2, 12]: increased the percentages of acrosin cells, but not significantly
- percentages of BOULE positive cells [2, 7]: significantly increased
- percentages of VASA positive cells [2, 7]: significantly increased
- percentages of acrosin positive cells [2, 7]: significantly increased
